In patent US20230277630A1, “METHODS AND COMPOSITIONS FOR TREATING AMYOTROPHIC LATERAL SCLEROSIS” (Amylyx Pharmaceuticals, Inc., priority 2022, published 2023):
Several values for one entry are separate records, joined by “and”; a condition that tells them apart may be missing. Equal values may be shown once. Read-outs that look alike come from different tables or passages of the source.

Assays:
P-gp = P-gp (Homo sapiens, UniProt P08183); assay: P-gp IC50 assessment, bidirectional digoxin transport in MDR1-MDCK cells
OCT2 = target: T1, OCT2 (Homo sapiens, UniProt O15244)
T1 sequence (O15244 1-555): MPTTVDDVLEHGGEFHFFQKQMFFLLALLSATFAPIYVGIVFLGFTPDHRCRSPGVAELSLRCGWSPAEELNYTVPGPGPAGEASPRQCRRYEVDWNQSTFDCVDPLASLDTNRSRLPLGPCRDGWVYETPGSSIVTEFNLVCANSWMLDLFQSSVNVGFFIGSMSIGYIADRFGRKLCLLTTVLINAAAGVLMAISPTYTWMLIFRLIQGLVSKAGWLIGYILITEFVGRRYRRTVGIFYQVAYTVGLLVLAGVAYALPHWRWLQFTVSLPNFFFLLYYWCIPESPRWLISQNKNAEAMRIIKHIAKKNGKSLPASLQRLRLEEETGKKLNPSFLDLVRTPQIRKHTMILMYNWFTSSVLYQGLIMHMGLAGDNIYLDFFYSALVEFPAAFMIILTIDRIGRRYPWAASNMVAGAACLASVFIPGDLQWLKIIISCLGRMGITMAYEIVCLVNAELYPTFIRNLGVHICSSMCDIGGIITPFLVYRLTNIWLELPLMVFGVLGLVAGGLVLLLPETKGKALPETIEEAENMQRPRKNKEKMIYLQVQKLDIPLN

OAT3 = target: T2, OAT3 (Homo sapiens, UniProt Q8TCC7)
T2 sequence (Q8TCC7 1-542): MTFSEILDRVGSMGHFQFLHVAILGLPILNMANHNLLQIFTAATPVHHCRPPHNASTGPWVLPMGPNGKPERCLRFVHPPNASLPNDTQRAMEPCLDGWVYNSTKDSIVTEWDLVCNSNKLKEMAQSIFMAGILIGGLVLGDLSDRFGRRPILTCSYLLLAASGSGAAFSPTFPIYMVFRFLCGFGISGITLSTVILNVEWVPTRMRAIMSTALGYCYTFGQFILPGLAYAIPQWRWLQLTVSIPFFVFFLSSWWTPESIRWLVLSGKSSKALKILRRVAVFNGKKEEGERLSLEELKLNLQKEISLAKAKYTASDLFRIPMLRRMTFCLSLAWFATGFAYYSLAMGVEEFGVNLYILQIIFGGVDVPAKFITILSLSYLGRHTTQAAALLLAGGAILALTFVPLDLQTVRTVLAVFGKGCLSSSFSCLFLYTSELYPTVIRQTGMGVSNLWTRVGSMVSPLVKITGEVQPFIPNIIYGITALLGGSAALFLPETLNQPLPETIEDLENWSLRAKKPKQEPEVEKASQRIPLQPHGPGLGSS

[1] = Relevant concentrations of TUDCA and PB for in vitro transporter assessment ([I]1, [I]2, Iin,max); details: for Plasma Cmax (total [I]1): component of AMX0035; for [I]2: estimated, highest oral dose TUDCA 1000 mg, PB 3000 mg; for Unbound Cmax (Unbound [I]1) / Unbound [I]in, max: projected
hrCYP2C9 = hrCYP2C9 (Homo sapiens, UniProt P11712); details: recombinant enzyme, 5 μM, pH 7.4
Procedure: (§1) The reaction was initiated by the addition of NADPH, followed by incubation at 37° C.
(§2) % Remaining of TA=100×At/A0
(§3) Where, At is the peak area ratio of TA to internal standard (IS) at time t, A0 is the average peak area ratio of TA to IS at time zero.

hrCYP1A2 = target: T3, hrCYP1A2 (Homo sapiens, UniProt P05177); details: recombinant enzyme, 5 μM, pH 7.4
T3 sequence (P05177 1-516): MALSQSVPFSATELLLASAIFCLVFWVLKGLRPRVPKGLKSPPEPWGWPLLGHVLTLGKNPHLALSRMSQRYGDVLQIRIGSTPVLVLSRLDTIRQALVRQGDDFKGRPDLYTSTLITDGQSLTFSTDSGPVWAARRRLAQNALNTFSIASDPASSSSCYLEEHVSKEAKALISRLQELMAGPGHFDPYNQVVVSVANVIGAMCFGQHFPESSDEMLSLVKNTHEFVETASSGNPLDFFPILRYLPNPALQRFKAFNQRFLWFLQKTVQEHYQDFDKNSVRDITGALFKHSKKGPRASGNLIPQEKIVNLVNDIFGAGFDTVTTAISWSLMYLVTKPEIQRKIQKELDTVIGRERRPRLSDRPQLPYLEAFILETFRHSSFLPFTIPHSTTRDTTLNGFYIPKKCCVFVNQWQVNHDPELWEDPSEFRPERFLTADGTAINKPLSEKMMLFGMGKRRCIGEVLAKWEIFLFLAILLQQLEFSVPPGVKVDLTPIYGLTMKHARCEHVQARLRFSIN
Procedure: as §1, §2, §3

hrCYP3A4 = hrCYP3A4 (Homo sapiens, UniProt P08684); details: recombinant enzyme, 5 μM, pH 7.4
Procedure: as §1, §2, §3

Chain of hrCYP3A4 (P08684 whole entry): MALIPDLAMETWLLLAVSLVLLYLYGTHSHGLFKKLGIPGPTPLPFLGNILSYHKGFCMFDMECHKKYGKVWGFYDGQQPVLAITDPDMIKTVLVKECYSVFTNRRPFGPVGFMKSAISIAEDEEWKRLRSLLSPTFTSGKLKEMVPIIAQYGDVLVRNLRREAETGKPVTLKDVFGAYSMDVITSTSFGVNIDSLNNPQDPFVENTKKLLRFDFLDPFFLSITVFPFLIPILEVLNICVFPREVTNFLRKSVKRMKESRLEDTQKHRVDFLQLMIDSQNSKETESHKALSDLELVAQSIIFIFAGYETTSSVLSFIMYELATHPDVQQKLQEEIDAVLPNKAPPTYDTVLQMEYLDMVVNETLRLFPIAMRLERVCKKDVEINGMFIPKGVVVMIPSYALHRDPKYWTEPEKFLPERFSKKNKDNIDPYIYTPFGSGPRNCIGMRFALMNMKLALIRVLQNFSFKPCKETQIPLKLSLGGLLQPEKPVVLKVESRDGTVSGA
Chain of hrCYP2C9 (P11712 whole entry): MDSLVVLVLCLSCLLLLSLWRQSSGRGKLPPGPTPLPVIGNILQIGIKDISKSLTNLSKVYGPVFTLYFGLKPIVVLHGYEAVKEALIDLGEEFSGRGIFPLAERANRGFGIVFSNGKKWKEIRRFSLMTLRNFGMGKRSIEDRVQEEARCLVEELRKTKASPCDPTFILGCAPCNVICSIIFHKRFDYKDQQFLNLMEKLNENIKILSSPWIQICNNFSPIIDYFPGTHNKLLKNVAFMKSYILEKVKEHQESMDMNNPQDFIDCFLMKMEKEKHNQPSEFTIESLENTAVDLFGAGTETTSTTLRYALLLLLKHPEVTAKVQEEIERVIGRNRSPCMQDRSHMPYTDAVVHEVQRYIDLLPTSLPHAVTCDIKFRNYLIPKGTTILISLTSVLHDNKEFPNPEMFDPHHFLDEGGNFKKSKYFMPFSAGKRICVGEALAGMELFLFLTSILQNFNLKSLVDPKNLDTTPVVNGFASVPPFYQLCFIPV
Chain of P-gp (P08183 whole entry): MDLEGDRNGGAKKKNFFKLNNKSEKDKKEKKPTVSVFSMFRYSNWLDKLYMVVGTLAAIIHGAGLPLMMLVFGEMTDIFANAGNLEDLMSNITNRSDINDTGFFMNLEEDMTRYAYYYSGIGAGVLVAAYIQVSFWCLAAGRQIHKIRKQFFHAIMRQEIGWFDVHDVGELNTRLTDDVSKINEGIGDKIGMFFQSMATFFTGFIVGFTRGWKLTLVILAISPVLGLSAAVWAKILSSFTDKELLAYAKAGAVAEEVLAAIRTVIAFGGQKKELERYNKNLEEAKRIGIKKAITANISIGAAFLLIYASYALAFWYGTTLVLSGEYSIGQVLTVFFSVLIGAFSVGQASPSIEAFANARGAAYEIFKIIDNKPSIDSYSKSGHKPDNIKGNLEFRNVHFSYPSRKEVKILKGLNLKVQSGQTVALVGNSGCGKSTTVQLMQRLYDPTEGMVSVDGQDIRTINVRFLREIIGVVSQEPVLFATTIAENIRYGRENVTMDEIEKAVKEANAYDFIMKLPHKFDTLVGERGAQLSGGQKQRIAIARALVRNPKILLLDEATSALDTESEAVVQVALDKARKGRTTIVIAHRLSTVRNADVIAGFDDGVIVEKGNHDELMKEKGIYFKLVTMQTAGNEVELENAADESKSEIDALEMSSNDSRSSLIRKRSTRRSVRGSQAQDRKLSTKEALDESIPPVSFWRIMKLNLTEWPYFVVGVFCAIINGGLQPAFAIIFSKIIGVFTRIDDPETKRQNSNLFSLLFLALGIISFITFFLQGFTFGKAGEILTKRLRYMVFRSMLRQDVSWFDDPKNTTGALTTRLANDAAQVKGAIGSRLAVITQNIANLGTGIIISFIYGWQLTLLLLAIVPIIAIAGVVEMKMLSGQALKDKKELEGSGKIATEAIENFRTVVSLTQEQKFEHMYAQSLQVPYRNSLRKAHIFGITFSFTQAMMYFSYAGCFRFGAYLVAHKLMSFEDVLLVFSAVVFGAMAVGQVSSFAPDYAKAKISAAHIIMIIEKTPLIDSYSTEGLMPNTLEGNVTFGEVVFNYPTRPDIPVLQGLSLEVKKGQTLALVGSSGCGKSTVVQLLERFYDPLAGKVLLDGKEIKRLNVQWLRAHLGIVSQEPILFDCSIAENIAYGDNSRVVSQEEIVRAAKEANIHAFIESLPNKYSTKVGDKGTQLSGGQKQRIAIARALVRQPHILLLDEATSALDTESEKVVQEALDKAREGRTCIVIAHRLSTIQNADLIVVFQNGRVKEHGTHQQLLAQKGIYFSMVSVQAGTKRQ

Row | Structure (SMILES) | IC50 (P-gp) [µM] | IC50 (OCT2) [µM] | IC50 (OAT3) | estimated [I]2 ([1]; Table 28) [µM] | projected unbound Cmax ([1]; Table 28) [µM] | Plasma Cmax (total [I]1) [1] [µM] | [I]2 [1] [µM] | Unbound Cmax (Unbound [I]1) [1] [µM] | Unbound [I]in, max [1] [µM] | % Remaining of TA (hrCYP2C9; 0 h) [%] | % Remaining of TA (hrCYP2C9; 20 min) [%] | % Remaining of TA (hrCYP2C9; 1 h) [%] | % remained after 60 minutes of incubation (hrCYP2C9; 1 h) | % Remaining of TA (hrCYP1A2; 0 h) [%] | % Remaining of TA (hrCYP1A2; 5 min) [%] | % Remaining of TA (hrCYP1A2; 20 min) [%] | % Remaining of TA (hrCYP1A2; 0.5 h) [%] | % Remaining of TA (hrCYP1A2; 1 h) [%] | % remained after 60 minutes of incubation (hrCYP1A2; 1 h) | % Remaining of TA (hrCYP3A4; 0 h) [%] | also measured
1 | O=C(O)CCCc1ccccc1 [PB, sodium phenylbutyrate] | 7160 to 21500 | > 14800 | 4930 to 14800 µM | 64447 | 148 | 826 | 64447 | 148 | 326 | 100 | 99.5 | 98.0 | greater than 90% | 100 | 98.3 | 99.9 | 101 | 95.1 | greater than 90% | 100 | projected unbound Iin,max ([1]; human): 326 µM; unbound [I]1 ([1]; human): 148 µM; % Remaining of TA (hrCYP3A4; 5 min): 100%; % Remaining of TA (hrCYP3A4; 10 min): 97.9%; % Remaining of TA (hrCYP3A4; 20 min): 100%; % Remaining of TA (hrCYP3A4; 0.5 h): 98.1%; % remained after 60 minutes of incubation (hrCYP3A4; 1 h): greater than 90%
2 | C[C@H](CCC(=O)NCCS(=O)(=O)O)[C@H]1CC[C@H]2[C@@H]3[C@@H](O)C[C@@H]4C[C@H](O)CC[C@]4(C)[C@H]3CC[C@]12C [TUDCA, tauroursodeoxycholic acid] | 889 to 2670 | > 162 | 54 to 162 µM and 5.4 to 162 µM | 8005 | 1.62 | 108 | 8005 | 1.62 | 3.48 | 100 | 98.5 | 90.3 | greater than 90% | 100 | 98.0 | 99.9 | 103 | 90.5 | greater than 90% | 100 | unbound [I]1 ([1]; Table 28): 1.62 µM; projected unbound Iin,max ([1]; oral administration, Table 28): 3.48 µM; % Remaining of TA (hrCYP2C9; 5 min): 96.0%; % Remaining of TA (hrCYP2C9; 10 min): 98.8%; % Remaining of TA (hrCYP2C9; 0.5 h): 97.8%; % Remaining of TA (hrCYP1A2; 10 min): 101%; % Remaining of TA (hrCYP3A4; 5 min): 97.1%; % Remaining of TA (hrCYP3A4; 10 min): 92.1%; % Remaining of TA (hrCYP3A4; 20 min): 91.4%; % Remaining of TA (hrCYP3A4; 0.5 h): 90.9%; % Remaining of TA (hrCYP3A4; 1 h): 91.1%; % remained after 60 minutes of incubation (hrCYP3A4; 1 h): greater than 90%
